Laboratory results from PMC9228270, “Design, Synthesis, In Silico Studies and Inhibitory Activity towards Bcr-Abl, BTK and FLT3-ITD of New 2,6,9-Trisubstituted Purine Derivatives as Potential Agents for the Treatment of Leukaemia” (Pharmaceutics, 2022).
Values joined by “and” are separate entries in the source; they are usually repeats but may differ in a detail not shown here. Identical values can stand only once. Like-named read-outs stand apart in the source and are kept apart here.

Key:
MV4-11 = test: Cytotoxicity assay (resazurin), MV4-11; format: cell-based; details: Homo sapiens, 72 h, three independent experiments, range 0.1 to 25 µM
Protocol: (§1) Cytotoxicity assays for the purines were quantified using the resazurin method, a dye to measure redox reactions occurring in the mitochondria of live cells. The cells were treated by tested compounds (in triplicate, six different doses) for 72 h.

CEM = test: Cytotoxicity assay (resazurin), CEM; format: cell-based; details: Homo sapiens, CCRF-CEM, 72 h, three independent experiments, range 0.1 to 25 µM
Protocol: as §1

FLT3-ITD = target: T1, FLT3-ITD (Homo sapiens, UniProt P36888, ITD); test: Recombinant kinase radioassay, FLT3-ITD; format: biochemical
T1 sequence (P36888 27-993): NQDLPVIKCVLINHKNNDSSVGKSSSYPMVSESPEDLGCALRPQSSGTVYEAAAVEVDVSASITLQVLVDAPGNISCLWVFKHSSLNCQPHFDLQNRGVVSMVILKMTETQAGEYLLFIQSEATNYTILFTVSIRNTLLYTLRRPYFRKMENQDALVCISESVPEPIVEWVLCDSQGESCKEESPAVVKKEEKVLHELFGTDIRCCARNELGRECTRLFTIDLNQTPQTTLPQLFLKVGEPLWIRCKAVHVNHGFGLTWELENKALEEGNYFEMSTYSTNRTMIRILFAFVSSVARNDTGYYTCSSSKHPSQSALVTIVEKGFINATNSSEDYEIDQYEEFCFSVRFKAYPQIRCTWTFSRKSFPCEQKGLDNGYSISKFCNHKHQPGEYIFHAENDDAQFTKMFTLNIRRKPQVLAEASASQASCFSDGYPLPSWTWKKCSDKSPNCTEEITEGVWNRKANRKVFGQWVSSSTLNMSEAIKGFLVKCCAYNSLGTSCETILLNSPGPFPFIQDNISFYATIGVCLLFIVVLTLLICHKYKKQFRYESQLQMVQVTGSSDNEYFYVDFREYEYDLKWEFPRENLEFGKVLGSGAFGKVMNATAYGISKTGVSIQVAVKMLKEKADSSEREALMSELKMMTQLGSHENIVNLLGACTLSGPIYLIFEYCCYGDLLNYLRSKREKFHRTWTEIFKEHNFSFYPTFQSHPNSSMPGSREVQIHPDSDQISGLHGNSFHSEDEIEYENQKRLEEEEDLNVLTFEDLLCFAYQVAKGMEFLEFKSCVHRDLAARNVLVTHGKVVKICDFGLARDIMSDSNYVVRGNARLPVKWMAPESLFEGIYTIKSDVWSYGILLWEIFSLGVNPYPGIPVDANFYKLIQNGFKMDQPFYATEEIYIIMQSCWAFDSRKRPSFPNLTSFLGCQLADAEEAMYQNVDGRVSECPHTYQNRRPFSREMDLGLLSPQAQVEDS
Protocol: (§2) Recombinant kinase inhibition was measured using standard radioassay. Bcr-Abl1 and Cdk-2/cyclin E kinases were produced in-house, FLT3-ITD and BTK were purchased from ProQinase. The kinases were assayed with suitable substrates (500 µM peptide […] for Abl, 1 mg/mL histone H1 for Cdk-2, 100 µM poly (Glu:Tyr; 4:1)) in the presence of ATP (1 µM for Bcr-Abl, 15 µM for Cdk-2 and BTK), 0.05 µCi [γ-^33P]ATP and the test compound in reaction buffer (60 mM HEPES-NaOH, pH 7.5, 3 mM MgCl2, 3 mM MnCl2, 3 µM Na orthovanadate, 1.2 mM DTT, 2.5 µg/50 µL PEG20.000). The reactions were stopped by adding 3% aq. H3PO4. P-81 phosphocellulose (Whatman) was used to separate phosphorylated substrates. Kinase activity was quantified using a FLA-7000 digital image analyser.

BTK = target: T2, BTK (Homo sapiens, UniProt Q06187); test: Recombinant kinase radioassay, BTK; format: biochemical
T2 construct: purchased ProQinase
Protocol: as §2

Cdk-2/cyclin E = target: T3, Cdk-2/cyclin E (Homo sapiens, UniProt P24941); test: Recombinant kinase radioassay, Cdk-2/cyclin E; format: biochemical; details: ATP 15 µM, at least three independent experiments, range 0.01–100 µM
T3 construct: made in house
Protocol: as §2

Ramos = test: Cytotoxicity assay (resazurin), Ramos; format: cell-based; details: Homo sapiens, 72 h, three independent experiments, range 0.1 to 25 µM
Protocol: as §1

K562 = test: Cytotoxicity assay (resazurin), K562; format: cell-based; details: Homo sapiens, 72 h, three independent experiments, range 0.1 to 25 µM
Protocol: as §1

HL-60 = test: Cytotoxicity assay (resazurin), HL-60; format: cell-based; details: Homo sapiens, 72 h, three independent experiments, range 0.1 to 25 µM
Protocol: as §1

Bcr-Abl1 = Bcr-Abl1 (Homo sapiens, UniProt P00519); test: Recombinant kinase radioassay, Abl; format: biochemical; details: ATP 1 µM, at least three independent experiments, range 0.01–100 µM
Protocol: as §2

[1] = recombinant kinase, radioassay, at least three independent experiments, range 0.01–100 µM, read-out: IC50 FLT3-ITD
[2] = recombinant kinase, radioassay, ATP 15 µM, at least three independent experiments, range 0.01–100 µM, read-out: IC50 BTK

T2 sequence (Q06187 whole entry): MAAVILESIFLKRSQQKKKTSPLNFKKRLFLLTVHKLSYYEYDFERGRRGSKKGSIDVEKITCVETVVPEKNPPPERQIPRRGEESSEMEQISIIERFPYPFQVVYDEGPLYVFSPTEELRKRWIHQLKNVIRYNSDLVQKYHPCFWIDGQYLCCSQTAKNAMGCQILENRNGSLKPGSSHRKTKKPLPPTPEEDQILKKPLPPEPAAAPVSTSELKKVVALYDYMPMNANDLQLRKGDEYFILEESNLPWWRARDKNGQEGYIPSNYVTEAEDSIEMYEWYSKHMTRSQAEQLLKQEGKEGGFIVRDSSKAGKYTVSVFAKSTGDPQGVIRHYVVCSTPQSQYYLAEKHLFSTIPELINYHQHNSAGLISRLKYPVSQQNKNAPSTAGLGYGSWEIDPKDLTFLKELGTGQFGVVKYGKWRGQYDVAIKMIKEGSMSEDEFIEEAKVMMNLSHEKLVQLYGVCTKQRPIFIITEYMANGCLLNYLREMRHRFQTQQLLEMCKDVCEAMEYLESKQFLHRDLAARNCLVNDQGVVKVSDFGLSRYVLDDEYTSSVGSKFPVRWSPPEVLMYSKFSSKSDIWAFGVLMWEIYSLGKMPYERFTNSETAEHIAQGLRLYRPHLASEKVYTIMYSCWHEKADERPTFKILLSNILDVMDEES
Sequence of Bcr-Abl1 (P00519 27-1130): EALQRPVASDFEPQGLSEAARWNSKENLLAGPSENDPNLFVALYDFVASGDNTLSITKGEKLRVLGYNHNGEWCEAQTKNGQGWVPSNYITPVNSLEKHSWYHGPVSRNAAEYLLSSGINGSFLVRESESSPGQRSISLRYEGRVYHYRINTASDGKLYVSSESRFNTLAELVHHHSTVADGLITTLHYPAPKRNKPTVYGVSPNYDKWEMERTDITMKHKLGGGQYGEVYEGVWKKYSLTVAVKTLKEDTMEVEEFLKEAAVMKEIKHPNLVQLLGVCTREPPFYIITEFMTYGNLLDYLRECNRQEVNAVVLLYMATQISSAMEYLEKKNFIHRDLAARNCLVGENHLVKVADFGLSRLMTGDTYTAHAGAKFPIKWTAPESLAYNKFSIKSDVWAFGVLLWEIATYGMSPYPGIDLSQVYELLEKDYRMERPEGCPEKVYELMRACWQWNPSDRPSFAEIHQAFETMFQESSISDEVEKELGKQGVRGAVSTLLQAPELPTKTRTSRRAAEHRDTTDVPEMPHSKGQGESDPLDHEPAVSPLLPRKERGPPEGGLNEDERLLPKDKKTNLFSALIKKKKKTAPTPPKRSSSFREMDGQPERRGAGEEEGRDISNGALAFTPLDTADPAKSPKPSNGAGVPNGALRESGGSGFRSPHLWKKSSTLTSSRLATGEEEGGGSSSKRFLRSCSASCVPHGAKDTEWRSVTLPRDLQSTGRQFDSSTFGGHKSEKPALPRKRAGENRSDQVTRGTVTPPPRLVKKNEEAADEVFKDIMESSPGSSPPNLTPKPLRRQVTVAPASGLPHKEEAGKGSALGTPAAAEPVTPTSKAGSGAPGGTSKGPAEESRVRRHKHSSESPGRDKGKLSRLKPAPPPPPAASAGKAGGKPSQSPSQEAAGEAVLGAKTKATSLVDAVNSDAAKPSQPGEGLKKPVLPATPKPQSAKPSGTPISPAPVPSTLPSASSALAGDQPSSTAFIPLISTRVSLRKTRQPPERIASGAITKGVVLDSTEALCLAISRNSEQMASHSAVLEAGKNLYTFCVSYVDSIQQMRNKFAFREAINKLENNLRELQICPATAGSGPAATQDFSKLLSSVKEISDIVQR

Row | SMILES | GI50 (MV4-11) | GI50 (CEM) | melting point | IC50 (FLT3-ITD; [1]) | IC50 (BTK; [2]) | IC50 (Cdk-2/cyclin E) | GI50 (Ramos) | GI50 (K562) | GI50 (HL-60) | IC50 (Bcr-Abl1) | IC50 (FLT3-ITD; -log IC50 in molar concentration, Table S3, read-out: Experimental pIC50, CoMFA FLT3 (converted)) | IC50 (BTK; -log IC50 in molar concentration, Table S3, read-out: Experimental pIC50, CoMFA BTK (converted))
1 | CN1CCN(c2ccc(Nc3nc(Nc4cccc(Cl)c4)c4ncn(CC5CC5)c4n3)cc2)CC1 [Compound 4b, N^6-(3-Chlorophenyl)-9-(cyclopropylmethyl)-N^2-(4-(4-methylpiperazin-1-yl)phenyl)-9H-purine-2,6-diamine] | 1940 ± 160 nM | 19000 ± 1070 nM | 152 to 153 °C | 1120 nM | 1280 ± 180 nM | 20000 ± 2070 nM | 10600 ± 3080 nM | 1990 ± 820 nM | 1930 ± 1050 nM | 120 ± 30 nM |  | 
2 | CN1CCN(c2ccc(Nc3nc(Nc4ccc([N+](=O)[O-])cc4)c4ncn(CC5CC5)c4n3)cc2)CC1 [Compound 4j, 9-(Cyclopropylmethyl)-N^2-(4-(4-methylpiperazin-1-yl)phenyl)-N^6-(4-nitrophenyl)-9H-purine-2,6-diamine] | 2210 ± 710 nM | 2520 ± 290 nM | 162 to 163 °C | 530 nM | 940 ± 40 nM | 23800 ± 6050 nM | 1300 ± 500 nM | 2840 ± 1040 nM | 420 ± 80 nM | 540 ± 20 nM |  | 
3 | CCCCCCCCn1cnc2c(Nc3cccc(F)c3)nc(Nc3ccc(N4CCN(C)CC4)cc3)nc21 [Compound 5k, N^6-(3-Fluorophenyl)-N^2-(4-(4-methylpiperazin-1-yl)phenyl)-9-octyl-9H-purine-2,6-diamine] | 12400 ± 3930 nM | 21300 ± 310 nM | 181.2 to 183.6 °C | > 20000 nM | 970 ± 220 nM | 25600 ± 3270 nM | 15700 ± 370 nM | 10000 ± 6310 nM | 2160 ± 480 nM | > 100000 nM |  | 
4 | CCCCCn1cnc2c(Nc3ccccc3)nc(Nc3ccc(N4CCN(C)CC4)cc3)nc21 [Compound 5d, N^2-(4-(4-Methylpiperazin-1-yl)phenyl)-9-pentyl-N^6-phenyl-9H-purine-2,6-diamine] | 1280 ± 380 nM | 19100 ± 3390 nM | 138.5 to 141.3 °C | 460 nM | < 580 nM and 420 nM | 31100 ± 2910 nM | 13800 ± 3130 nM | 6700 ± 2480 nM | 3980 ± 1060 nM | 1230 ± 20 nM |  | 
5 | CN1CCN(C(=O)c2ccc(Nc3nc(Nc4ccccc4)c4ncn(CC5CC5)c4n3)cc2)CC1 [Compound 8a, (4-((9-(Cyclopropylmethyl)-6-(phenylamino)-9H-purin-2-yl)amino)phenyl)(4-methylpiperazin-1-yl)methanone] | 1240 ± 210 nM | > 25000 nM | 164 to 165 °C | 1950 nM | 6010 ± 720 nM | 31400 ± 3180 nM | 16600 ± 670 nM | 8910 ± 1640 nM | 6640 ± 1420 nM | 1210 ± 110 nM |  | 
6 | CN1CCN(c2ccc(Nc3nc(Nc4ccccc4)c4ccn(CC5CC5)c4n3)cc2)CC1 [Compound 12, 7-(Cyclopropylmethyl)-N^2-(4-(4-Methylpiperazin-1-yl)Phenyl)-N^4-Phenyl-7H-pyrrolo[2,3-d]Pyrimidine-2,4-Diamine] | 8280 ± 2900 nM | 15500 ± 1460 nM | 102.3 to 105.5 °C | > 20000 nM | > 20000 nM | 46200 ± 1490 nM | 12800 ± 610 nM | 6380 ± 1140 nM | 3580 ± 650 nM | 62300 ± 12100 nM | 1540 nM | 2390 nM
7 | CC(C)CCn1cnc2c(Nc3ccccc3)nc(Nc3ccc(N4CCN(C)CC4)cc3)nc21 [Compound 5a, 9-Isopentyl-N^2-(4-(4-methylpiperazin-1-yl)phenyl)-N^6-phenyl-9H-purine-2,6-diamine] | 730 ± 250 nM | 16400 ± 2410 nM | 153.1 to 155.2 °C | 230 nM | 2220 ± 960 nM | 22100 ± 380 nM | 10100 ± 2980 nM | 8930 ± 5520 nM | 1520 ± 610 nM | 1780 ± 200 nM |  | 
8 | CCCCCn1cnc2c(Nc3cccc(F)c3)nc(Nc3ccc(N4CCN(C)CC4)cc3)nc21 [Compound 5e, N^6-(3-Fluorophenyl)-N^2-(4-(4-methylpiperazin-1-yl)phenyl)-9-pentyl-9H-purine-2,6-diamine] | 1310 ± 710 nM | 19000 ± 3890 nM | 147.1 to 149.3 °C | 500 nM | < 580 nM and 360 nM | 19000 ± 8980 nM | 11600 ± 1460 nM | 2140 ± 800 nM | 1310 nM | 650 ± 70 nM |  | 
9 | CN1CCN(c2ccc(Nc3nc(Nc4cccc([N+](=O)[O-])c4)c4ncn(CC5CC5)c4n3)cc2)CC1 [Compound 4g, 9-(Cyclopropylmethyl)-N^2-(4-(4-methylpiperazin-1-yl)phenyl)-N^6-(3-nitrophenyl)-9H-purine-2,6-diamine] | 1980 ± 460 nM | 11400 ± 3930 nM | 165 to 166 °C | 1250 nM | 1360 ± 160 nM | 5620 ± 520 nM | 4870 ± 10 nM | 2930 ± 590 nM | 8510 ± 1790 nM | 110 ± 10 nM |  | 
10 | CN1CCN(c2ccc(Nc3nc(Nc4ccc(Cl)c(F)c4)c4ncn(CC5CC5)c4n3)cc2)CC1 [Compound 4l, N^6-(4-Chloro-3-fluorophenyl)-9-(cyclopropylmethyl)-N^2-(4-(4-methylpiperazin-1-yl)phenyl)-9H-purine-2,6-diamine] | 2560 ± 640 nM | 15400 ± 550 nM | 149 to 150 °C | 1030 nM | 880 ± 190 nM | 26600 ± 3370 nM | 11200 ± 2640 nM | 3450 ± 1610 nM | 3220 ± 740 nM | 200 ± 50 nM |  | 
11 | CN1CCN(c2ccc(Nc3nc(Nc4ccc(OC(F)(F)F)cc4)c4ncn(CC5CC5)c4n3)cc2)CC1 [Compound 4h, 9-(Cyclopropylmethyl)-N^2-(4-(4-methylpiperazin-1-yl)phenyl)-N^6-(4-(trifluoromethoxy)phenyl)-9H-purine-2,6-diamine] | 2450 ± 90 nM | 15000 ± 920 nM | 161 to 162 °C | 750 nM | 600 ± 220 nM | 18200 ± 2050 nM | 11700 ± 2880 nM | 2900 ± 910 nM | 1080 ± 310 nM | 390 ± 80 nM |  | 
12 | Cc1cccc(Nc2nc(Nc3ccc(N4CCN(C)CC4)cc3)nc3c2ncn3CC2CC2)c1 [Compound 4c, 9-(Cyclopropylmethyl)-N^2-(4-(4-methylpiperazin-1-yl)phenyl)-N^6-(m-tolyl)-9H-purine-2,6-diamine] | 1420 ± 230 nM | 16400 ± 360 nM | 135 to 137 °C | 1500 nM | 1300 ± 20 nM | 22900 ± 2080 nM | 12500 ± 480 nM | 2860 ± 760 nM | 9790 ± 870 nM | 100 nM |  | 
13 | CN1CCN(c2ccc(Nc3nc(Nc4cccc(OC(F)(F)F)c4)c4ncn(CC5CC5)c4n3)cc2)CC1 [Compound 4e, 9-(Cyclopropylmethyl)-N^2-(4-(4-methylpiperazin-1-yl)phenyl)-N^6-(3-(trifluoromethoxy)phenyl)-9H-purine-2,6-diamine] | 2880 ± 10 nM | 19500 ± 610 nM | 161 to 162 °C | 2320 nM | 4120 ± 900 nM | 47700 ± 19400 nM | 12840 ± 30 nM | 5180 ± 1680 nM | 1400 ± 130 nM | 420 ± 100 nM |  | 
